Assay [1] can be described thus: Weight gain, food intake and body composition of normal lean mice dosed for 28 days. In kind it is in vivo, female C57Bl/6 normal lean mice. The method, then:
(§1) Remale C57Bl/6 genetically obese (ob/ob) or normal lean mice were fed on a powdered breeders diet and given the compounds either once daily by oral gavage, or by admixture with the diet for 28 days. Fifty parts per million (ppm) in the diet is equivalent to a dose level of about eight to ten )obese mie) or twelve to thirteen (normal mice) milligrams per kilogram body weight per dya. Body lipid content and lean body mass were determined gravimetrically. There were seven or eight mice in each treatment group and results are expressed as a percentage of values for an untreated group of similar size.

A short description of assay [2]: Weight gain, food intake and body composition of genetically obese (ob/ob) mice dosed for 28 days. Type of assay: in vivo, female C57Bl/6 genetically obese (ob/ob) mice. The method, then:
as §1

The nature of assay [3]: Weight gain and food conversion efficiency of broiler chicken, 30-56 days. In kind it is in vivo, Marshall sexed broiler chicken. The following applies: 3 ppm in feed. From the text: Marshall sexed broiler chicken, 30 days old, were fed on a basal feed, which was designed as a practical broiler and finisher feed. Additive (see below) was substituted for maize in tis diet. The supplemented diets were fed until the birds were 56 days old.

Assay [4] can be described thus: Pup weight and rectal temperature after administration to pregnant rats. Type of assay: in vivo, Sprague-Dawley rats. The settings on record: days 2-20 of gestation, mean ± S.E.M. The method, then: Female Sprague-Dawley rates were mated, fed on powdered rodent diet and given compound P1 as a dietary admixture (150 ppm) from days 2-20 of gestation. Thereafter no further compound was given. Parturition occurred on day 22. The pups were weight 24 hours after birth. 48 hours after birth 7 pups were removed at random from 3 control and 3 treated litters, placed 29° C. and rectal temperature was monitored. Results are expressed as means of the number of values shown in parentheses±S.E.M.

In the case of `COC(=O)c1ccc(CC(C)NCC(O)c2ccc(O)c(CO)c2)cc1` (centres unmarked) [Preparation P3], in assay [1] (20 mg/kg po once daily), the “Amt. of Lipid” value was 69 % of control values, the Gain/Intake is 90 % of control values, the “Lean Body mass” value is on record as 113 % of control values and the “Weight Gain” value is 171 % of control values.
With `COC(=O)c1ccc(CC(C)NCC(O)c2ccccc2)cc1` (centres unmarked) [Preparation P1, N-[2-(4-carbomethoxyphenyl)-1-methylethyl]-2-hydroxy-2-phenylethanamine], in assay [2] (50 ppm in diet), the “Amt. of Lipid” value is recorded as 103 % of control values, the “Food Intake” value is 119 % of control values, the Gain/Intake is on record as 168 % of control values and the “Lean Body mass” value is 111 % of control values. For the same molecule, the “Weight Gain” value in assay [2] (50 ppm in diet) is 200 % of control values. In assay [3] (female, control 1309), the “Weight gain 30-56 days” value came out at 1326 g. Further, the “Food conversion efficiency 30-56 days” value in assay [3] (female, control .329) is given as “.333”. Moreover, the “Weight gain 30-56 days” value in assay [3] (male, control 1644) came out at 1784 g. Besides, the “Food conversion efficiency 30-56 days” value in assay [3] (male, control .367) is “.385”. For the same molecule, the “Weight, All pups” value in assay [4] (150 ppm in diet of dams, 24 hours after birth, n=52, control 5.3 ± 0.1) is recorded as 5.9 ± 0.1 g. Also, in assay [4] (150 ppm in diet of dams, n=7, control 5.0 ± 0.1), the “Weight, Pups monitored for body temperature” value is given as 6.6 ± 0.4 g. Moreover, the “Drop in rectal temperature after 10 mins @ 29° C.” value in assay [4] (pups 48 hours after birth, dams 150 ppm in diet, n=7, control 2.76 ± 0.16) is 1.98 ± 0.06. The “Rectal temperature after 10 mins @ 29° C.” value in assay [4] (pups 48 hours after birth, dams 150 ppm in diet, n=7, control 29.4 ± 0.4) came out at 31.2 ± 0.5.
`COC(=O)COc1ccc(CC(C)NCC(O)c2cc(Cl)c(N)c(Cl)c2)cc1` (centres unmarked) [Preparation P5, N-[2-(4-carbomethoxymethoxyphenyl)-1-methylethyl]-2-hydroxy-2-(4-amino-3,5-dichlorophenyl)ethanamine]: in assay [1] (50 ppm in diet), the “Food Intake” value is listed as 108 % of control values, the Gain/Intake is recorded as 116 % of control values, the “Lean Body mass” value is given as 108 % of control values and the “Weight Gain” value is recorded as 125 % of control values.
`COC(=O)c1ccc(CC(C)NCC(O)c2ccc(O)c(CO)c2)cc1` [Preparation P2, N-[2-(4-carbomethoxyphenyl)-L-methylethyl]-2-hydroxy-2-(4-hydroxy-3-hydroxymethylphenyl) ethanamine]: in assay [2] (10 mg/kg po once daily), the “Amt. of Lipid” value is 77 % of control values, the “Food Intake” value is on record as 111 % of control values, the Gain/Intake is 70 % of control values and the “Lean Body mass” value is 113 % of control values. Besides, the “Weight Gain” value in assay [2] (10 mg/kg po once daily) was 78 % of control values. In addition, in assay [2] (36 ppm in diet), the “Amt. of Lipid” value is 101 % of control values, the “Food Intake” value is on record as 112 % of control values, the Gain/Intake is on record as 99 % of control values and the “Lean Body mass” value was 112 % of control values. The “Weight Gain” value in assay [2] (36 ppm in diet) is given as 111 % of control values. Further, in assay [1] (75 ppm in diet), the “Amt. of Lipid” value is on record as 78 % of control values, the “Food Intake” value is 107 % of control values, the Gain/Intake was 120 % of control values and the “Lean Body mass” value is 107 % of control values. In addition, the “Weight Gain” value in assay [1] (75 ppm in diet) was 128 % of control values.
As to `COC(=O)COc1ccc(CC(C)NCC(O)c2cccc(Cl)c2)cc1` (centres unmarked) [Preparation P4, N-[2-(4-carbomethoxymethoxyphenyl)-1-methylethl]-2-hydroxy-2-(3-chlorophenyl)ethanamine], in assay [2] (0.46 ppm in diet), the “Amt. of Lipid” value was 105 % of control values, the “Food Intake” value was 116 % of control values, the Gain/Intake is reported as 124 % of control values and the “Lean Body mass” value is reported as 107 % of control values. Besides, in assay [2] (0.46 ppm in diet), the “Weight Gain” value is reported as 143 % of control values.

The values are drawn from patent US4873240A, “Method for administering ethanolamine derivatives to livestock” (Beecham Group p.l.c., priority 1985, dated 1989).
